Bounds are passed on as bounds.

For 25 compounds, IC50 results are on record in patent US20240002344A1, “COMPOUNDS, COMPOSITIONS AND METHODS FOR HISTONE LYSINE DEMETHYLASE INHIBITION” (FibroGen, Inc., priority 2020, published 2024).

One assay addresses T1, recombinant human KDM4A (Homo sapiens, UniProt O75164).
T1 construct: made in house
T1 sequence (O75164 1-359 limits assumed): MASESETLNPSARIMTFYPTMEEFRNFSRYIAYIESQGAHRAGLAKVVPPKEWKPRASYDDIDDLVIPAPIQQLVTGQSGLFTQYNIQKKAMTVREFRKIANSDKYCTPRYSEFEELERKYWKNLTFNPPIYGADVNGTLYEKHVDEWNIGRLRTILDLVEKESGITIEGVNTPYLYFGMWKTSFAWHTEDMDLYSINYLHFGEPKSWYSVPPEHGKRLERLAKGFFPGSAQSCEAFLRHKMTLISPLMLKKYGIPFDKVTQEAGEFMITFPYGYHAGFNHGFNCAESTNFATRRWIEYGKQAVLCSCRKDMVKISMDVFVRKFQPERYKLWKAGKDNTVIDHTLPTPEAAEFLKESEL
Kind of assay: 14CO2 capture enzymatic assay (decarboxylation of [1-14C] αKG), KDM4A. To be noted: 10 μM [1-14C] αKG, 90 μM non-labeled αKG, 50 μM peptide substrate, 37° C., 1 hour, final 1% DMSO. It counts as biochemical. The method, then:
(§1) Enzymatic activity was determined based on the capture of ^14CO2 released by the decarboxylation of [1-^14C] αKG (Zhang et al., Anal. Biochem., 1998, vol. 271, pp. 137-142). [1-^14C]alphaketoglutarate (αKG) was from Perkin-Elmer, H3K4me3 and H3K9me3 peptides were from Mimotopes. All other reagents were from Sigma. Reaction mixtures included the following components: Fe(SO4), [1-^14C] αKG, non-labeled αKG, ascorbate, peptide-substrate (H3K4me3: H-ARTK(me3)QTARKSTGGKAPRKQLA-OH. H3K9me3: H-ARTKQTARK(me3)STGGKAPRKQLA-OH), NaCl, Tween-20 and catalase in 25 mM HEPES buffer, pH 7.4. The enzymatic reactions were initiated by addition of recombinant human KDM5B or KDM4A enzyme (truncated enzyme produced in house by method and using sequence disclosed in Ng et al, Nature 448:87-91, 2007). The reactions were performed in 96-well microtiter plates (20 μL total assay volume) (Greiner #650201). ^14CO2 was captured on a glass fiber filter paper (Cat. No. IH-201-A, Inotech Biosystems International) soaked with saturated Ba(OH)2 that was laid on top of the 96-well plate. A microtiter plate sealer film (Thermal Seal cat #T7961100) was applied to the filter paper. The plate and filter paper were sandwiched between two custom made aluminum plates (Advanced Component Manufacturing, Burlingame, CA) and transferred to a 37° C. oven and allowed to incubate for 1 hour. After incubation, the filter paper was dried in a 103° C. oven for 40-60 minutes. To determine percent turnover, aliquots of the reaction mixture were spotted onto the filter paper and the filter paper was dried again. The dry filter paper was exposed to a storage phosphor screen for 24-72 hours and the images recorded using a Typhoon FLA 7000 Imager (Amersham Biosciences, Piscataway, NJ). Integrated spot intensities corresponding to control reactions lacking the enzyme were subtracted from integration results for enzyme containing reactions and data were converted to enzyme dependent percent ^14CO2 release. All enzymatic reactions were run in duplicates.
(§2) For IC50 determination, a 3-fold dilution series of compound was prepared and added to the reaction mixture (final 1% DMSO, v/v) prior to enzyme addition. The final reagent concentrations were: 10 μM Fe(SO4), 10 μM [1-^14C] αKG, 90 μM non-labeled αKG, 2 mM ascorbate, 50 μM peptide substrate, 75 mM NaCl, 0.01% Tween-20 and ˜2 units/μL catalase. IC50s were determined by non-linear fitting using Grafit version 7.0.

The next assay deals with T2, recombinant human KDM5B (Homo sapiens, UniProt Q9UGL1).
T2 sequence (Q9UGL1 374-755 limits assumed): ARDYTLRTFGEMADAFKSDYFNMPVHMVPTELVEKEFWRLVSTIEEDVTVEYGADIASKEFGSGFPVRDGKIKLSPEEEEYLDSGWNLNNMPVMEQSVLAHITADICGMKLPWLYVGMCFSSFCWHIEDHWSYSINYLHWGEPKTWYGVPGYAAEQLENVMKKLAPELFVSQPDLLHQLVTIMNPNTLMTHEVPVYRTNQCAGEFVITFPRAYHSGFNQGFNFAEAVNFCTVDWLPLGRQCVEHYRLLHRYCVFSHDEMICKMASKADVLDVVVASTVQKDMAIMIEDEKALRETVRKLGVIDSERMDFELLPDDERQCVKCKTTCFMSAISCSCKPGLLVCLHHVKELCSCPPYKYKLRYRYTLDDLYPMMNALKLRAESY
Kind of assay: 14CO2 capture enzymatic assay (decarboxylation of [1-14C] αKG), KDM5B. The format is biochemical. The conditions noted are these: 10 μM [1-14C] αKG, 90 μM non-labeled αKG, 50 μM peptide substrate, 37° C., 1 hour, final 1% DMSO. The procedure:
as §1, §2

Take `N#Cc1cc(Oc2cccc(Cl)c2)cc(C(=O)CCC(=O)O)c1O` [Example 138, 4-[5-(3-Chloro-phenoxy)-3-cyano-2-hydroxy-phenyl]-4-oxo-butyric acid]: the IC50 on recombinant human KDM4A is above 40000 nM; at recombinant human KDM5B, 390 nM.
On the same counts, the results for `Cc1ccc(Cl)c(-c2cc(C#N)c(O)c(C(=O)CCC(=O)O)n2)c1` [Example 102, 4-[6-(2-Chloro-5-methyl-phenyl)-4-cyano-3-hydroxy-pyridin-2-yl]-4-oxo-butyric acid] are above 40000 nM and 400 nM.
On the same counts, the results for `Cc1cc(C#N)ccc1-c1cc(C#N)c(O)c(C(=O)CCC(=O)O)n1` [Example 99, 4-[4-Cyano-6-(4-cyano-2-methyl-phenyl)-3-hydroxy-pyridin-2-yl]-4-oxo-butyric acid] are above 40000 nM and 270 nM.
On the same counts, the results for `N#Cc1cc(Cc2c(F)cc(F)cc2F)nc(C(=O)CCC(=O)O)c1O` [Example 55, 4-[4-Cyano-3-hydroxy-6-(2,4,6-trifluoro-benzyl)-pyridin-2-yl]-4-oxo-butyric acid] are 34000 nM and 220 nM.
Turning to `O=C(O)CCC(=O)c1nc(C(F)(F)F)cc(C(F)(F)F)c1O` [Example 4, 4-(3-Hydroxy-4,6-bis-trifluoromethyl-pyridin-2-yl)-4-oxo-butyric acid], the IC50 at recombinant human KDM4A turned out to be 3500 nM; at recombinant human KDM5B it was 230 nM.
On the same counts, the results for `N#Cc1cc(-c2ccccc2Cl)cc(C(=O)CCC(=O)O)c1O` [Example 119, 4-(2′-Chloro-5-cyano-4-hydroxy-biphenyl-3-yl)-4-oxo-butyric acid] are above 40000 nM and 280 nM.
On the same counts, the results for `N#Cc1cc(Cc2cccc(OC(F)(F)F)c2)nc(C(=O)CCC(=O)O)c1O` [Example 48, 4-[4-Cyano-3-hydroxy-6-(3-trifluoromethoxy-benzyl)-pyridin-2-yl]-4-oxo-butyric acid] are above 40000 nM and 310 nM.
On to `Cc1c(-c2cc(C#N)c(O)c(C(=O)CCC(=O)O)n2)cccc1C(F)(F)F` [Example 95, 4-[4-Cyano-3-hydroxy-6-(2-methyl-3-trifluoromethyl-phenyl)-pyridin-2-yl]-4-oxo-butyric acid], for which the IC50 is above 40000 nM at recombinant human KDM4A and 350 nM on recombinant human KDM5B.
As to `N#Cc1cc(-c2ccc(-c3ccccc3)cc2)nc(C(=O)CCC(=O)O)c1O` [Example 75, 4-(6-Biphenyl-4-yl-4-cyano-3-hydroxy-pyridin-2-yl)-4-oxo-butyric acid], the values for the IC50 on recombinant human KDM4A and on recombinant human KDM5B were 20000 nM and 90 nM, respectively.
On the same counts, the results for `N#Cc1cc(Oc2ccc(F)cc2)cc(C(=O)CCC(=O)O)c1O` [Example 142, 4-[3-Cyano-5-(4-fluoro-phenoxy)-2-hydroxy-phenyl]-4-oxo-butyric acid] are above 40000 nM and 280 nM.
On the same counts, the results for `N#Cc1cc(Cc2c(Cl)ccc(F)c2Cl)nc(C(=O)CCC(=O)O)c1O` [Example 149, 4-[4-Cyano-6-(2,6-dichloro-3-fluoro-benzyl)-3-hydroxy-pyridin-2-yl]-4-oxo-butyric acid] are 3700 nM and 70 nM.
On the same counts, the results for `Cc1c(C#N)cccc1-c1cc(C#N)c(O)c(C(=O)CCC(=O)O)n1` [Example 98, 4-[4-Cyano-6-(3-cyano-2-methyl-phenyl)-3-hydroxy-pyridin-2-yl]-4-oxo-butyric acid] are above 40000 nM and 300 nM.
As for `COc1cc(Cl)c(Cc2cc(C#N)c(O)c(C(=O)CCC(=O)O)n2)c(Cl)c1` [Example 147, 4-[4-Cyano-6-(2,6-dichloro-4-methoxy-benzyl)-3-hydroxy-pyridin-2-yl]-4-oxo-butyric acid], the results for the IC50 at recombinant human KDM4A and on recombinant human KDM5B were above 40000 nM and 160 nM, respectively.
As for `N#Cc1ccc(Cc2cc(C#N)c(O)c(C(=O)CCC(=O)O)n2)cc1` [Example 44, 4-[4-Cyano-6-(4-cyano-benzyl)-3-hydroxy-pyridin-2-yl]-4-oxo-butyric acid], the figures for the IC50 at recombinant human KDM4A and on recombinant human KDM5B were above 40000 nM and 230 nM, respectively.
On the same counts, the results for `N#Cc1cc(-c2cccc(C(F)(F)F)c2)nc(C(=O)CCC(=O)O)c1O` [Example 28, 4-[4-Cyano-3-hydroxy-6-(3-trifluoromethyl-phenyl)-pyridin-2-yl]-4-oxo-butyric acid] are above 40000 nM and 200 nM.
On the same counts, the results for `N#Cc1cc(Cc2c(F)cccc2Cl)nc(C(=O)CCC(=O)O)c1O` [Example 30, 4-[6-(2-Chloro-6-fluoro-benzyl)-4-cyano-3-hydroxy-pyridin-2-yl]-4-oxo-butyric acid] are 17000 nM and 250 nM.
Regarding `N#Cc1cc(CCc2ccccc2)cc(C(=O)CCC(=O)O)c1O` [Example 135, 4-(3-Cyano-2-hydroxy-5-phenethyl-phenyl)-4-oxo-butyric acid], the IC50 at recombinant human KDM4A was above 40000 nM; on recombinant human KDM5B, 370 nM.
Regarding `N#Cc1cc(Cc2c(Cl)cc(F)cc2Cl)nc(C(=O)CCC(=O)O)c1O` [Example 126, 4-[4-Cyano-6-(2,6-dichloro-4-fluoro-benzyl)-3-hydroxy-pyridin-2-yl]-4-oxo-butyric acid], the IC50 at recombinant human KDM4A was determined as 2900 nM; at recombinant human KDM5B it was 70 nM.
On the same counts, the results for `Cc1cccc(C(F)(F)F)c1Cc1cc(C#N)c(O)c(C(=O)CCC(=O)O)n1` [Example 62, 4-[4-Cyano-3-hydroxy-6-(2-methyl-6-trifluoromethyl-benzyl)-pyridin-2-yl]-4-oxo-butyric acid] are above 40000 nM and 470 nM.
On the same counts, the results for `N#Cc1cc(-c2ccc(-c3ccccc3)c3ccccc23)nc(C(=O)CCC(=O)O)c1O` [Example 111, 4-[4-Cyano-3-hydroxy-6-(4-phenyl-naphthalen-1-yl)-pyridin-2-yl]-4-oxo-butyric acid] are above 40000 nM and 320 nM.
On the same counts, the results for `Cc1cccc(C)c1C(=O)Nc1cc(C#N)c(O)c(C(=O)CCC(=O)O)n1` [Example 129, 4-[4-Cyano-6-(2,6-dimethyl-benzoylamino)-3-hydroxy-pyridin-2-yl]-4-oxo-butyric acid] are above 40000 nM and 560 nM.
Consider `N#Cc1cc(-c2ccc(F)c3ccccc23)nc(C(=O)CCC(=O)O)c1O` [Example 109, 4-[4-Cyano-6-(4-fluoro-naphthalen-1-yl)-3-hydroxy-pyridin-2-yl]-4-oxo-butyric acid], for which the IC50 at recombinant human KDM4A is above 40000 nM; at recombinant human KDM5B, 250 nM.
On the same counts, the results for `N#Cc1cc(Cc2ccc(C(F)(F)F)cc2)nc(C(=O)CCC(=O)O)c1O` [Example 39, 4-[4-Cyano-3-hydroxy-6-(4-trifluoromethyl-benzyl)-pyridin-2-yl]-4-oxo-butyric acid] are above 40000 nM and 130 nM.
On the same counts, the results for `N#Cc1cc(NC(=O)c2c(Cl)cccc2Cl)nc(C(=O)CCC(=O)O)c1O` [Example 128, 4-[4-Cyano-6-(2,6-dichloro-benzoylamino)-3-hydroxy-pyridin-2-yl]-4-oxo-butyric acid] are above 40000 nM and 380 nM.
On the same counts, the results for `N#Cc1cc(Cc2c(Cl)ccc(Cl)c2Cl)nc(C(=O)CCC(=O)O)c1O` [Example 156, 4-[4-Cyano-3-hydroxy-6-(2,3,6-trichloro-benzyl)-pyridin-2-yl]-4-oxo-butyric acid] are 11000 nM and 70 nM.

For orientation: IC50 means the concentration at which inhibition is half-maximal.
